Data reported in US9708266B2, “Cyclohexyl pyridine derivative” (priority 2014, dated 2017).

Legend:
NK1 receptor = NK1 receptor (Meriones unguiculatus (Mongolian jird) (Gerbillus unguiculatus), UniProt Q5DUB1); experiment: Effect on GR73632-induced foot-tapping; format: in vivo; conditions: male gerbil, 0.1 mg/kg iv, GR73632 icv after four hours
Procedure: (§1) The test compound solution was prepared by dissolving the test compound in a vehicle (a mixture of 50% N,N-dimethylacetamide (Wako Pure Chemical Industries), 30% propylene glycol (Wako Pure Chemical Industries), 4% 2-hydroxypropyl-3-cyclodextrin (Wako Pure Chemical Industries) and 16% distilled water).
A male gerbil (Japan SLC) was anesthetized with isoflurane, and 0.1 mg/kg of a test compound was administered from the jugular vein. After four hours, GR73632 (5 pmol/5 μl saline), which is an NK1 receptor agonist, was administered into the cerebral ventricle at the part 1 mm lateral to and 4.5 mm below the bregma in the head, under anesthesia with isoflurane. After the administration, the gerbil was moved to an observation cage, and the foot-tapping period during 30 minutes after the recovery of the righting reflex was measured. The foot-tapping inhibition rate (%) of each test compound was calculated by the following equation. Foot-tapping inhibition rate (%)={1−(Foot-tapping period when test compound was administered)/(Foot-tapping period when solvent was administered)}×100 (2) Measurement of Drug Concentrations

[1] = Ferret pharmacokinetic test; format: in vivo; conditions: male ferret, plasma
Procedure: Ferret Pharmacokinetic Test
The test compound solution for intravenous administration was prepared by dissolving the test compound in a vehicle (a mixture of 50% N,N-dimethylacetamide (Wako Pure Chemical Industries), 30% propylene glycol (Wako Pure Chemical Industries), 4% 2-hydroxypropyl-β-cyclodextrin (Wako Pure Chemical Industries) and 16% distilled water). As an oral administration solution, the suspension (0.5% methylcelluose) was used.
Under anesthesia with isoflurane, 0.1 mg/kg of the test compound was intravenously administered to a male ferret (Marshall BioResources Japan) from the femoral vein. In the case of oral administration, 1 mg/kg of the test compound was orally administered to an awake animal. After the administration of the test compound, blood samples were taken sequentially from the brachial cephalic vein up to 7 days after the administration. Through a quantitative analysis using liquid chromatography-mass spectrometry (LC/MS), the concentrations of the test compound in the plasma were measured.
In the tables, Ex. No. means the Example number. t1/2, CLtot and Vss are the half-life, the total body clearance and the steady-state volume of distribution, based on the plasma concentrations in the case of intravenous administration, respectively. Cmax, AUC and BA are the maximum plasma test compound concentration, the area under the plasma test compound concentration-time curve within 7 days after the administration and the bioavailability, in the case of oral administration, respectively.

[2] = test system: cisplatin-induced acute and delayed emetic response; experiment: Effect on cisplatin-induced acute and delayed emetic response; format: in vivo; conditions: male ferret, 0.01 or 0.1 mg/kg iv, cisplatin 5 mg/kg ip
Procedure: The vertical axes show the number of retching and vomiting (Retches+Vomits) (the mean+standard error of 3 examples of control group, the mean+standard error of 3 examples of the group intravenously administered with 0.01 mg/kg, and the mean+standard error of 3 examples of the group intravenously administered with 0.1 mg/kg).
Effect on Cisplatin-Induced Acute and Delayed Emetic Response
as §1, with “2-hydroxypropyl-β-cyclodextrin” for “2-hydroxypropyl-3-cyclodextrin”, “water). The vehicle only was administered to the control group.” for “water).”
Under anesthesia with isoflurane, 0.01 mg/kg or 0.1 mg/kg of the test compound was intravenously administered to a male ferret (Marshall BioResources Japan) from the jugular vein. Cisplatin in saline, which was heated to 40-50° C., was intraperitoneally administered at 5 mg/kg one hour after the drug administration.

human NK1 receptor = human NK1 receptor (Homo sapiens (Human), UniProt P25103); experiment: Affinity for human NK1 receptor (125I-substance P receptor binding test); conditions: membrane fraction of human NK1 receptor-expressing 293T cells; read-out: IC50 (concentration required for 50% inhibition of 125I-substance P binding)
Procedure: Affinity for Human NK1 Receptor
PCR was performed using human adult normal tissue-derived brain cDNA (BioChain) as the template, with the forward primer of SEQ ID NO:1 and the reverse primer of SEQ ID NO:2, using a PCR enzyme, PrimeSTAR Max DNA Polymerase or PrimeSTAR GXL DNA Polymerase (registered trademark, Takara Bio). The amplified product was inserted into a plasmid (pCR-BluntII-TOPO (registered trademark), Life Technologies) using Zero Blunt PCR Cloning Kit (registered trademark, Life Technologies). By a general method, Escherichia coli (One Shot TOP10 competent cells, Life Technologies) was transformed by the plasmid into which the amplified product had been inserted. The Escherichia coli cells were cultured on an LB agar medium containing 50 μg/mL kanamycin for a day. After the culture, a colony was selected and cultured in an LB medium containing 50 μg/mL of kanamycin. After the culture, the plasmid was purified using Quantum Prep Plasmid Miniprep Kit (Bio-Rad). The plasmid was double digested for about two hours using restriction enzymes, XhoI and HindIII (New England Biolabs). Then, electrophoresis using 1% agarose gel was performed, and the fragment that was cleaved was collected and purified using TaKaRa RICOCHIP (Takara Bio). […]

NK1 receptor, sequence (Q5DUB1 whole entry): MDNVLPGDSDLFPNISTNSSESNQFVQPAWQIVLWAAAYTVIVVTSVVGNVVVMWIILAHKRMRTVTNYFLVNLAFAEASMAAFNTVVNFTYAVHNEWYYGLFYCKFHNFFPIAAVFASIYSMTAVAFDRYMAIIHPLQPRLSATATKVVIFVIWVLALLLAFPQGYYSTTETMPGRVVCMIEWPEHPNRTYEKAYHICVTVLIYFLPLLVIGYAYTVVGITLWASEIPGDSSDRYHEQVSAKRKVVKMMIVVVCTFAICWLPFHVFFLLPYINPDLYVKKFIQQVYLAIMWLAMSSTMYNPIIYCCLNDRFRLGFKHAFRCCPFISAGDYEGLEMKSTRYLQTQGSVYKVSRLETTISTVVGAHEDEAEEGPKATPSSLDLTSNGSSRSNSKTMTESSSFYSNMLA
human NK1 receptor, sequence (P25103 whole entry): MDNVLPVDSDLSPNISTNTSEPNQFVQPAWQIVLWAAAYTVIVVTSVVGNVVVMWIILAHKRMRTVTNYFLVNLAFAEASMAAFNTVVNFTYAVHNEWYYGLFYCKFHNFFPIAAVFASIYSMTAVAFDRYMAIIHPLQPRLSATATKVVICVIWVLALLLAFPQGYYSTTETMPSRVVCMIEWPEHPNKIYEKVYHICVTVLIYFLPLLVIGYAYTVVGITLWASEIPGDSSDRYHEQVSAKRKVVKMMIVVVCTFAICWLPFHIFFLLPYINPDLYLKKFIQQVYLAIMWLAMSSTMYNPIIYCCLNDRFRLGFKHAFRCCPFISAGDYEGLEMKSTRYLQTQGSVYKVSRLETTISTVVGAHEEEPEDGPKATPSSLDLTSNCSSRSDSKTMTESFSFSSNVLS

Row | Inhibition (foot-tapping inhibition rate) (NK1 receptor) [%] | clearance ([1]; 0.1 mg/kg intravenous, read-out: CL tot (total body clearance)) [mL/min/kg] | Vd ([1]; 0.1 mg/kg intravenous, read-out: Vss (steady-state volume of distribution)) [L/kg] | half-life ([1]; 0.1 mg/kg intravenous, read-out: t1/2 (half-life)) [h] | AUC ([1]; 1 mg/kg oral, read-out: AUC (area under the plasma concentration-time curve within 7 days) (converted)) [ng·h/mL] | bioavailability ([1]; 1 mg/kg oral, read-out: BA (bioavailability)) [%] | Cmax ([1]; 1 mg/kg oral, read-out: Cmax (maximum plasma test compound concentration)) [ng/mL] | IC50 (human NK1 receptor) [nM] | SMILES | number of retching and vomiting, delayed phase ([2]; 24 hours to 72 hours) | number of retching and vomiting, acute phase ([2]; up to 24 hours)
1 | 100 | 0.13 | 0.401 | 41.5 | 88200 | 66 | 1260 | – | Cc1cc(F)ccc1-c1cc([C@H]2CC[C@H](CC(=O)O)CC2)ncc1N(C)C(=O)C(C)(C)c1cc(C(F)(F)F)cc(C(F)(F)F)c1 [Example 13, trans-{4-[5-{[2-(3,5-Bistrifluoromethylphenyl)-2-methylpropionyl]methylamino}-4-(4-fluoro-2-methylphenyl)pyridin-2-yl]cyclohexyl}acetic acid] | inhibition of the number of retching and vomiting was observed | inhibition of the number of retching and vomiting was observed
2 | 100 | – | – | – | – | – | – | 1.78 | Cc1cc(F)ccc1-c1cc(C2CCC(CCC(=O)O)CC2)ncc1N(C)C(=O)C(C)(C)c1cc(C(F)(F)F)cc(C(F)(F)F)c1 (centres unmarked) [Example 2, 3-{4-[5-{[2-(3,5-Bistrifluoromethylphenyl)-2-methylpropionyl]methylamino}-4-(4-fluoro-2-methylphenyl)pyridin-2-yl]cyclohexyl}propionic acid] | – | –
